Data published in paper PMC6658769, “First-Time-in-Human Study and Prediction of Early Bactericidal Activity for GSK3036656, a Potent Leucyl-tRNA Synthetase Inhibitor for Tuberculosis Treatment” (Antimicrobial Agents and Chemotherapy, 2019).
≈ marks a conversion by molar mass, not a printed value.

Key:
in vitro [1] = assay type: in vitro ADME; details: dog, plasma
[2] = mouse, in vivo
[3] = Food effect study (part A, high-fat meal); details: 5 mg; for half-life: human, plasma, po, t1/2, geometric LS mean
[4] = Population PK model at completion of the study
[5] = tested on: panel of mammalian cell lines; assay: Activity against a panel of mammalian cell lines; assay type: cell-based
in vitro [6] = assay type: in vitro ADME; details: rat, plasma
clinical [7] = details: human, in vivo, po
[8] = tested on: M. tuberculosis bacterial strain H37Rv; parameters: method as in PMID 28953378; details: in vitro; cited from earlier work
clinical [9] = details: human, in vivo, po, 5 mg, Ref
clinical [10] = details: human, in vivo
[11] = human, in vivo
[12] = both, human, in vivo
[13] = human, in vivo; remark: listed apart in the source
[14] = Stability in pooled and spiked urine; assay type: physicochemical, human; details: multiple freeze-thaw cycles and prolonged exposure to light
[15] = tested on: panel of common bacterial pathogens; assay: Activity against a panel of common bacterial pathogens; assay type: cell-based

NC[C@H]1OB(O)c2c(OCCO)ccc(Cl)c21 [GSK3036656, (S)-3-(aminomethyl)-4-chloro-7-(2-hydroxyethoxy)benzo[c][1,2]oxaborol-1(3H)-ol]
fraction unbound (in vitro [1]): 0.76 | oral bioavailability [2]: very high | t1/2 ratio ([3]; fed vs fasted): 0.89 | half-life ([3]; Ref, 5 mg fasted, n = 6): 38.6 h | half-life ([3]; Test, 5 mg fed, n = 5): 34.4 h | CL/F, bootstrap median estimate ([4]; bootstrap (1,000 runs)): 3.7 L/h | IIV Q/F, bootstrap median estimate ([4]; bootstrap (1,000 runs)): 26.5 | IIV V2/F, bootstrap median estimate ([4]; bootstrap (1,000 runs)): 107 | IIV V3/F, bootstrap median estimate ([4]; bootstrap (1,000 runs)): 22.9 | Q/F, bootstrap median estimate ([4]; bootstrap (1,000 runs)): 63.1 L/h | V2/F, bootstrap median estimate ([4]; bootstrap (1,000 runs)): 15.9 L | V3/F, bootstrap median estimate ([4]; bootstrap (1,000 runs)): 149 L | CL/F, estimate (%SE) ([4]; final population PK model): 3.69 (3) liters/h | Q/F, estimate (%SE) ([4]; final population PK model): 63 (15) liters/h | V2/F, estimate (%SE) ([4]; final population PK model): 14.9 (30) liters | V3/F, estimate (%SE) ([4]; final population PK model): 150 (6) liters | IIV Q/F, estimate (%SE) ([4]; random effects, final model): 27.3 (37) | IIV V2/F, estimate (%SE) ([4]; random effects, final model): 111 (37) | IIV V3/F, estimate (%SE) ([4]; random effects, final model): 23.3 (30) | activity against a panel of mammalian cell lines [5]: inactivity | fraction unbound (in vitro [6]): 0.688 | AUC(0-inf) (clinical [7]; both, 5 mg): 1400 ng·h/mL | AUC(0-t) (clinical [7]; both, 5 mg): 771 ng·h/mL | Cmax (clinical [7]; both, 5 mg): 49.1 ng/mL | Tmax (clinical [7]; both, 5 mg): 1.1 h | AUC(0-inf) (clinical [7]; both, 15 mg): 3800 ng·h/mL | AUC(0-t) (clinical [7]; both, 15 mg): 3250 ng·h/mL | Cmax (clinical [7]; both, 15 mg): 178 ng/mL | AUC(0-inf) (clinical [7]; 25 mg): 6560 ng·h/mL | AUC(0-t) (clinical [7]; 25 mg): 5690 ng·h/mL | Cmax (clinical [7]; 25 mg): 207 ng/mL | Tmax (clinical [7]; 25 mg): 1.1 h | MIC [8]: 0.0235 µg/mL (≈ 0.0913 µM) | AUC(0-t) (clinical [9]; AUC0–t, geometric LS mean): 732 ng·h/mL | AUC(0-inf) (clinical [9]; AUC0–∞, geometric LS mean): 1430 ng·h/mL | Cmax (clinical [9]; Cmax, geometric LS mean): 48.4 ng/mL | Tmax (clinical [9]; Tmax): 1.25 h | AUC (clinical [10]; both, 15 mg, steady-state AUC (on average)): 4460 ng·h/mL | AUC(0-t) (clinical [10]; po, 5 mg): 486 ng·h/mL | Cmax (clinical [10]; po, 5 mg): 48.4 ng/mL | Cmax at 14 days (clinical [10]; po, 5 mg): 97 ng/mL | Tmax (clinical [10]; po, 5 mg): 1.3 h | Tmax at 14 days (clinical [10]; po, 5 mg): 0.8 h | AUC (clinical [10]; po, 5 mg, AUC(Ro), geometric LS mean, Ref): 486 ng·h/mL | AUC (clinical [10]; po, 5 mg, AUC(Ro), geometric LS mean, Test): 1390 ng·h/mL | AUC (clinical [10]; po, 5 mg, Geometric mean AUC0–τ (%CVb)): 1390 ng·h/mL | AUC(0-t) (clinical [10]; po, 15 mg): 1890 ng·h/mL | Cmax (clinical [10]; po, 15 mg): 179 ng/mL | Cmax at 14 days (clinical [10]; po, 15 mg): 310 ng/mL | Tmax at 14 days (clinical [10]; po, 15 mg): 0.8 h | AUC (clinical [10]; po, 15 mg, AUC(Ro), geometric LS mean, Ref): 1890 ng·h/mL | AUC (clinical [10]; po, 15 mg, AUC(Ro), geometric LS mean, Test): 4460 ng·h/mL | AUC (clinical [10]; po, 15 mg, Geometric mean AUC0–τ (%CVb)): 4460 ng·h/mL | Total % dose (drug-related material) in pooled urine [11]: 50 % dose | dose-proportionality slope, AUC0–t [12]: 1.32 | dose-proportionality slope, Cmax and AUC0–∞ [12]: 0.96 | Absorption lag time, bootstrap median estimate [13]: 0.24 h | Absorption lag time, estimate (%SE) [13]: 0.235 (3) h | Ka, bootstrap median estimate [13]: 0.95 h⁻¹ | Ka, estimate (%SE) [13]: 0.925 (23) h^−1 | Residual variability (Prop), bootstrap median estimate [13]: 12.6% | Residual variability (Prop), estimate (%SE) [13]: 12.9 (16) % | stability in pooled and spiked urine [14]: degraded to GSK3635633 | activity against a panel of common bacterial pathogens [15]: inactivity
